According to the NIST ThermoML archive (doi:10.1021/je200039y):
Numbers after ± are expanded uncertainties.

Tests used:
[1] = Liquid
[2] = refractive index (Na D-line) (dimensionless); conditions: 298 K; 101.33 kPa; Liquid; Standard Abbe refractometry
[3] = 343.15 K, Ebulliometric method (Recirculating still)
[4] = 350.3 K, Closed cell (Static) method
[5] = 350.43 K, Closed cell (Static) method

## CCOC(C)(C)C [2-ethoxy-2-methylpropane]
[1]; [3]
  vapor or sublimation pressure: 92.9 ± 0.7 kPa
[2]
  refractive index: 1.373 ± 0.0007

## CSSC [2,3-dithiabutane]
[1]; 343.15 K, Closed cell (Static) method
  vapor or sublimation pressure: 27.8 ± 0.4 kPa
[1]; [4]
  vapor or sublimation pressure: 36.1 ± 0.8 kPa
[1]; 350.38 K, Closed cell (Static) method
  vapor or sublimation pressure: 36 ± 0.8 kPa
[1]; [5]
  vapor or sublimation pressure: 35.8 ± 0.8 kPa
[1]; 350.55 K, Closed cell (Static) method
  vapor or sublimation pressure: 36.1 ± 0.8 kPa
[2]
  refractive index: 1.5226 ± 0.0007

## CCO [ethanol]
[1]; [3]
  vapor or sublimation pressure: 72.5 ± 0.6 kPa
[2]
  refractive index: 1.3593 ± 0.0007

## C=C(C)C [2-methylpropene]
[1]; [5]
  vapor or sublimation pressure: 1154.3 ± 5 kPa

## CCCC [butane]
[1]; 350.36 K, Closed cell (Static) method
  vapor or sublimation pressure: 951.7 ± 4.1 kPa

## CC(C)C [2-methylpropane]
[1]; 350.54 K, Closed cell (Static) method
  vapor or sublimation pressure: 1269.5 ± 5.5 kPa

## C/C=C/C [(E)-2-butene]
[1]; [4]
  vapor or sublimation pressure: 929.2 ± 4 kPa

## Cc1ccccc1C [1,2-dimethylbenzene]
[2]
  refractive index: 1.5026 ± 0.0007
